Publication PMC4084896 (PLoS ONE, 2014)
Converted amounts (≈) assume the structure as drawn.

Assays:
AhR = biological target: T1, AhR (Mus musculus, UniProt P30561); test: EMSA with nuclear extracts from Hepa-1c1c7 cells (AhR-ARNT-DRE complex); format: cell-based; settings: Hepa-1c1c7 nuclear extracts, 50 µM, 2 h
T1 construct: endogenous in cells; host or cells: mouse hepatoma Hepa-1c1c7 cells (living cells treated 2 h, then nuclear extracts made)
Description: Electrophoretic mobility shift assay was performed in guinea pig cytosol and nuclear extract from mouse hepatoma cells. Hepa-1c1c7 cells were incubated for 2 h with tested compounds. Nuclear extracts procedure and EMSA analysis was performed as previously described (Soshilov & Denison; 2014). Guinea pig hepatic cytosol (8 mg/mL in HEDG) was incubated for 2 h in a room temperature water bath with tested compounds. An aliquot of the reaction was mixed with poly[dI•dC] and [^32P]-DRE (100.000 cpm), and AHR:DRE:[^32P]DRE complexes were resolved by gel retardation analysis, visualized by autoradiography and quantified by phosphorimager analysis (FujiFilm) of the dried gels.
We carried out the electrophoretic mobility shift assay (EMSA) to reveal whether effects of KET on AhR-CYP1A pathway involve transformation of AhR to DNA binding form, and whether these effects are enantiospecific. For this purpose, EMSA was performed in two experimental systems: (i) Hepatic guinea pig cytosol was treated for 2 hours with DMSO, 20 nM TCDD, (+)-KET, (−)-KET and commercial rac-KET (from Sigma) at 10 µM, 30 µM and 50 µM. All forms of KET transformed AhR to DNA binding form, but the activation was very weak and not statistically above background. There was a slightly stronger effect of (+)-KET and rac-KET as compared to (−)-KET, but the difference was not significant (Figure 4A). (ii) Since we obtained only weak signals in guinea pig liver cytosols, we also analyzed nuclear extracts from mouse hepatoma Hepa-1c1c7 cells treated for 2 hours with DMSO, TCDD (10 nM), (+)-KET (50 µM), (−)-KET (50 µM), commercial rac-KET (Sigma; 50 µM) or an equimolar mix of (+)/(−) enantiomers (50 µM total). […] The effects of (−)-KET were slightly stronger as compared to (+)-KET. […] In addition, we observed formation of the second band with lower molecular weight than AhR-ARNT-DRE, by purified KET enantiomers but not by TCDD and commercial KET.

AZ-GR cells = test: MTT cytotoxicity test in AZ-GR cells; format: cell-based, human; settings: Homo sapiens; 24 h incubation; read-out: AZ-GR viability - MTT IC50
Text: (§1) A stably transfected gene reporter cell line AZ-AHR, derived from human hepatoma HepG2 cells transfected with a construct containing several AhR binding sites upstream of a luciferase reporter gene, was used for assessment of AhR transcriptional activity. A stably transfected gene reporter cell line AZ-GR, derived from human cervix carcinoma HeLa cells transfected with a construct containing several GR response elements upstream of a luciferase reporter gene, was used for assessment of GR transcriptional activity. Cells were incubated for 24 h with tested compounds and/or vehicle (DMSO; 0.1% v/v), in the presence or absence of TCDD (5 nM; AZ-AHR cells) or DEX (100 nM; AZ-GR cells). After the treatments, cells were lysed and luciferase activity was measured. In parallel, cell viability was determined by conventional MTT test.
(§2) There is multiple evidence for the role of glucocorticoid receptor (GR) in regulation of AhR activity. […] Gene reporter assays were performed in agonist and antagonist mode (similarly as described in section 3.1.).

[1] = tested on: tyrosine aminotransferase (TAT) mRNA; test: TAT mRNA in HepG2 cells (qRT-PCR); format: cell-based, human; settings: HepG2, 1, 30, 50 µM, 24 h
[2] = MTT cytotoxicity test in primary human hepatocytes; format: cell-based; settings: primary human hepatocytes, read-out: viability, % of control value
Text: as §1
The cells were treated for 24 h with (+)-KET, (−)-KET and commercial rac-KET (1 µM, 30 µM, 50 µM), and with TCDD (5 nM) and vehicle (DMSO; 0.1% V/V). […] In the cytotoxicity assay, we found all forms of KET highly toxic against human hepatocytes at the concentration 50 µM.

[3] = biological target: T2, glucocorticoid receptor (GR) (Homo sapiens, UniProt P04150); test: GR gene reporter assay in AZ-GR cells, agonist mode; format: cell-based
T2 sequence (P04150 1-777): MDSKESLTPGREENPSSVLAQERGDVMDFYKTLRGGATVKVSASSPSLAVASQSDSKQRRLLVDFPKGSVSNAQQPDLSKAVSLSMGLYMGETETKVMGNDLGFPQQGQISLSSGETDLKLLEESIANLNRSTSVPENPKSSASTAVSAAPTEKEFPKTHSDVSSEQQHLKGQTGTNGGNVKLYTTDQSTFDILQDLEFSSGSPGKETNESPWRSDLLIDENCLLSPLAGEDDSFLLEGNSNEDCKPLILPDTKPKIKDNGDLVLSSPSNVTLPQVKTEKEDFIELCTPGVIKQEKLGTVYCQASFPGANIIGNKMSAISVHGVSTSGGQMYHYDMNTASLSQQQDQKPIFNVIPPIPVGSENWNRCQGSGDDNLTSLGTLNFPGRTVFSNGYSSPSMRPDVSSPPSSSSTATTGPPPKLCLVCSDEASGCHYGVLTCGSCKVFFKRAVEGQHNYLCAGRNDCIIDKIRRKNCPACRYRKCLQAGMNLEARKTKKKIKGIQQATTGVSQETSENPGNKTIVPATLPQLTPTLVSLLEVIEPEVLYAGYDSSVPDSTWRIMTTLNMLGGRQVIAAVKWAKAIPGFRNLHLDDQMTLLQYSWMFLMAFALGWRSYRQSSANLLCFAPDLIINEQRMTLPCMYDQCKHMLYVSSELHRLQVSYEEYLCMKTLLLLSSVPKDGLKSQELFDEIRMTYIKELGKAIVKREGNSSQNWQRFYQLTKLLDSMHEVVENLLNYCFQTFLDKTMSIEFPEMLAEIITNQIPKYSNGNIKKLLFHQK
Text: as §1, §2

[4] = MTT cytotoxicity test in AZ-AHR cells; format: cell-based, human; settings: human; 24 h incubation, six passages; read-out: AZ-AHR viability - MTT IC50
Text: as §1
Prior to the agonist or antagonist experiments, the cytotoxicity of tested compounds was assessed using the conventional MTT assay. […] The vehicle was DMSO (0.1% v/v). After the treatment, a MTT test was performed.

[5] = biological target: T3, aryl hydrocarbon receptor AhR (Homo sapiens, UniProt P35869); test: AhR gene reporter assay in AZ-AHR cells, antagonist mode (TCDD 5 nM); format: cell-based; settings: 24 h, in the presence of TCDD 5 nM
T3 construct: endogenous in cells; host or cells: AZ-AHR (stably transfected reporter line derived from HepG2)
T3 sequence (P35869 11-848): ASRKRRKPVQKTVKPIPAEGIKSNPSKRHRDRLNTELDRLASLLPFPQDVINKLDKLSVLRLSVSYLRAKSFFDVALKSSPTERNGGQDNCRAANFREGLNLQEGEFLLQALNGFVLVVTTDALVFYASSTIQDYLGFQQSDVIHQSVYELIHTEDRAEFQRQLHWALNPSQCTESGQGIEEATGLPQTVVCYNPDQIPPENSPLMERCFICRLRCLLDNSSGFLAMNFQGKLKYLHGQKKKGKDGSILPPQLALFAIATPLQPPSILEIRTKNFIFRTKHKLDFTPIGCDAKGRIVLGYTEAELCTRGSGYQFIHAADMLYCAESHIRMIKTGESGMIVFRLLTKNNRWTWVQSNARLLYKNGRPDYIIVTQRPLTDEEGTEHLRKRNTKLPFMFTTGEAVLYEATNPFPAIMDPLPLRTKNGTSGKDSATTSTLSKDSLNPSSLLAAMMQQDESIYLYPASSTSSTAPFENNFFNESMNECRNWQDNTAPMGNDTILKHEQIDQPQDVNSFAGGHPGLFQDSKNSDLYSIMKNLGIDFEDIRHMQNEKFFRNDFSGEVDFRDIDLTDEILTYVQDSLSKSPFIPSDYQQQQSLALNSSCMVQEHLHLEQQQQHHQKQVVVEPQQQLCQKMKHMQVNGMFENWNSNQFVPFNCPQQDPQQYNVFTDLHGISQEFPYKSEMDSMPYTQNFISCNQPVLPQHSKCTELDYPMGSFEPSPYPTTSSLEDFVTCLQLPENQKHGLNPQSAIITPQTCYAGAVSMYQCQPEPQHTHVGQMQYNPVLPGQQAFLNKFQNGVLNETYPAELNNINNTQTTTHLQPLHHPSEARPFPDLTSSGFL
Text: as §1
(§3) Gene reporter assays were performed in two different experimental layouts. In agonist mode, cells were treated with increasing concentrations of tested compounds, and the half-maximal effective concentrations (EC50) were calculated.

[6] = biological target: T2, glucocorticoid receptor (GR); test: GR gene reporter assay in AZ-GR cells, antagonist mode (DEX 100 nM); format: cell-based; settings: 24 h
Text: as §1, §2

[7] = biological target: T3, aryl hydrocarbon receptor AhR; test: AhR gene reporter assay in AZ-AHR cells, agonist mode; format: cell-based
Text: as §1, §3

C. tropicalis 5 = test: MIC assessment, microdilution; format: cell-based; settings: Candida tropicalis
Description: (§4) Antifungal activity was assessed using the standard microdilution method determining the minimum inhibitory concentrations (MICs) of the tested samples leading to inhibition of yeast growth. Disposable microtiter plates were used for the tests. The samples were diluted in brain heart infusion broth (HiMedia). […] C. albicans, C. krusei, C. tropicalis and C. parapsilosis. […] Subsequently, 100 µL were transferred into the first microplate well and serially diluted by a factor of 2. The prepared microplates were inoculated with a standard amount of the tested Candida spp. – the inoculum density in a well was equal to 10^5 CFU/mL. […] The minimum fungicidal concentration (MFC) is the minimum concentration of the sample required to kill the yeast after a defined period of incubation. The MFCs were determined by the inoculation method. With an applicator, 10 µL were transferred from the microplate wells with defined concentrations of the tested sample and inoculated onto Sabouraud agar (Trios). The MFC was determined as the lowest concentration that inhibited the visible growth of the used yeast. For growth curve assessment, the samples were serially diluted in 96-well microtiter plates. […] Absorbance (630 nm) was measured every hour during 24 hours and the obtained values were used to plot growth curves

C. albicans 978 = test: MIC assessment, microdilution; format: cell-based; settings: Candida albicans
Description: as §4

C. albicans 1 = test: MIC assessment, microdilution; format: cell-based; settings: Candida albicans
Description: as §4

C. krusei 3 = test: MIC assessment, microdilution; format: cell-based; settings: Pichia kudriavzevii
Description: as §4

C. krusei 094 = test: MIC assessment, microdilution; format: cell-based; settings: Pichia kudriavzevii
Description: as §4

C. parapsilosis 6 = test: MIC assessment, microdilution; format: cell-based; settings: Lodderomyces parapsilosis
Description: as §4

T1 sequence (P30561 10-805 limits assumed): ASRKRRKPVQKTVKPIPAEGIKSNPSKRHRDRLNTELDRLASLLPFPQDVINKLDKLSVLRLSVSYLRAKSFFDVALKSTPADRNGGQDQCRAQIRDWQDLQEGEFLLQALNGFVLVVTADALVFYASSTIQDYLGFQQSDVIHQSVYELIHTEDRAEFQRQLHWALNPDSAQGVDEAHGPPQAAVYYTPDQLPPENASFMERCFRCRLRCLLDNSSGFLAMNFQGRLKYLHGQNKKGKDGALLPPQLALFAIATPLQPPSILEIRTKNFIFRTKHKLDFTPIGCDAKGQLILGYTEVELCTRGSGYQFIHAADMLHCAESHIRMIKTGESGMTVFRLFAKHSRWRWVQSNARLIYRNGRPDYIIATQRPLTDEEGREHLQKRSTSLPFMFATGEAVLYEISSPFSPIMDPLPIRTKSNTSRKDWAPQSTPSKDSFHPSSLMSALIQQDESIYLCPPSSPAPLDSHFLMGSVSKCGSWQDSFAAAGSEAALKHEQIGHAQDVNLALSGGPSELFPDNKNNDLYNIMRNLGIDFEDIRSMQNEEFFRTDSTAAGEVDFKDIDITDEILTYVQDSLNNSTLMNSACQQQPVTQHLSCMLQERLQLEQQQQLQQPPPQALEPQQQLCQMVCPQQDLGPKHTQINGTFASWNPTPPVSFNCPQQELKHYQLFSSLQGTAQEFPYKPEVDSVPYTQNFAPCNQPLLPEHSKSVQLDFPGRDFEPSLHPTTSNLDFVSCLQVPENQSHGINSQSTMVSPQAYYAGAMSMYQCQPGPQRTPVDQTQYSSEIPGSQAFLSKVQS
T1 sequence (P53762 whole entry partner): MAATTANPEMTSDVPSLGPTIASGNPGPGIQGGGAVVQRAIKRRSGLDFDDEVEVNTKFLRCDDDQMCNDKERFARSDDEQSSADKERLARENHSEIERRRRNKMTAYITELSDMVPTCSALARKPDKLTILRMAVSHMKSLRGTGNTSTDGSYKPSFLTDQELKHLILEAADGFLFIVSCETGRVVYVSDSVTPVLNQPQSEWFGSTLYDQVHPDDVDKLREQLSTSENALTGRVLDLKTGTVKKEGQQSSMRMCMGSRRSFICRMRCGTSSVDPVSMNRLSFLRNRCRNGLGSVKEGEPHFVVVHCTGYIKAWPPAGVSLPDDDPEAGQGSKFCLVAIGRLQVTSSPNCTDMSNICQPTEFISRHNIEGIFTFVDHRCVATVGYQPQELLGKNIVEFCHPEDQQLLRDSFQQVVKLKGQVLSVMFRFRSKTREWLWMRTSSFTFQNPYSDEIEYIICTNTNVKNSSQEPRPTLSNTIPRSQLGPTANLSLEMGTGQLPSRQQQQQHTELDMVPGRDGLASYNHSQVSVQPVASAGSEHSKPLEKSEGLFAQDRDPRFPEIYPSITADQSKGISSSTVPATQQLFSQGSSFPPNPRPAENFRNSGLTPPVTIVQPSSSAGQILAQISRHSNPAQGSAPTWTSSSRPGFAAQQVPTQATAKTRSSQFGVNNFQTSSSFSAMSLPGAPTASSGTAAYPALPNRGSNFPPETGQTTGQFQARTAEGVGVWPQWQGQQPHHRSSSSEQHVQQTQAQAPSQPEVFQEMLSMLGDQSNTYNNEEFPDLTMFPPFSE

SMILES | transformation of AhR to DNA binding form (in words) (AhR) | MIC (C. tropicalis 5) [µg/mL] | MIC (C. albicans 978) [µg/mL] | MIC (C. albicans 1) [µg/mL] | MIC (C. krusei 3) [µg/mL] | MIC (C. krusei 094) [µg/mL] | MIC (C. parapsilosis 6) [µg/mL] | also measured
CC(=O)N1CCN(c2ccc(OC[C@@H]3CO[C@@](Cn4ccnc4)(c4ccc(Cl)cc4Cl)O3)cc2)CC1 [(−)-KET, (2S,4R)-(−)-KET] | only weakly transformed |  |  |  |  |  |  | IC50 (AZ-GR cells): 71.6 ± 27.5 µM; TAT mRNA induction (in words) [1]: strong, concentration-dependent induction; viability at 24 h, 50 µM [2]: 37%; increase of luciferase activity, agonist mode ([3]; up to / at 100 µM, 24 h): did not induce luciferase activity; IC50 at 24 h [4]: 72.7 ± 27.3 µM; IC50 [5]: 17.5 ± 1.7 µM; IC50 ([6]; in the presence of DEX 100 nM): 26.7 ± 3.7 µM; AZ-AHR gene reporter - agonist efficacy [7]: 5,2 ± 3,2%; EC50 ([7]; 24 h, agonist mode): 2.2 µM
C[C@@H]1C[C@H]2[C@@H]3CCC4=CC(=O)C=C[C@]4(C)[C@@]3(F)[C@@H](O)C[C@]2(C)[C@@]1(O)C(=O)CO [DEX, dexamethasone] |  |  |  |  |  |  |  | average induction of GR-dependent luciferase activity ([3]; 100 nM DEX, four passages): 70 fold
CC(=O)N1CCN(c2ccc(OCC3COC(Cn4ccnc4)(c4ccc(Cl)cc4Cl)O3)cc2)CC1 (racemic) [racemic KET obtained by mixing pure (+)-KET and pure (−)-KET in ratio 1∶1] | much weaker and comparable with individual enantiomers |  |  |  |  |  |  | antagonist effect in titration experiment (in words) ([6]; final concentration 50 µM, DEX 100 nM): much stronger as compared to commercial rac-KET
CC[C@@H]([C@H](C)O)n1ncn(-c2ccc(N3CCN(c4ccc(OC[C@@H]5CO[C@@](Cn6cncn6)(c6ccc(F)cc6F)C5)cc4)CC3)cc2)c1=O [Posaconazole, posaconazole] |  | 0.19 (≈ 0.271 µM) | 0.064 (≈ 0.0913 µM) | 0.094 (≈ 0.134 µM) | 0.19 (≈ 0.271 µM) | 0.25 (≈ 0.357 µM) | 0.032 (≈ 0.0457 µM) | 
OC(Cn1cncn1)(Cn1cncn1)c1ccc(F)cc1F [Fluconazole, fluconazole] |  | 6 (≈ 19.6 µM) | 1.5 (≈ 4.9 µM) | 0.38 (≈ 1.24 µM) | 48 (≈ 157 µM) | 32 (≈ 104 µM) | 2 (≈ 6.53 µM) | 
C[C@@H](c1ncncc1F)[C@](O)(Cn1cncn1)c1ccc(F)cc1F [Voriconazole, voriconazole] |  | 0.19 (≈ 0.544 µM) | 0.016 (≈ 0.0458 µM) | 0.016 (≈ 0.0458 µM) | 0.19 (≈ 0.544 µM) | 0.19 (≈ 0.544 µM) | 0.023 (≈ 0.0658 µM) | 
